According to patent US20240336642A1 (The General Hospital Corporation, priority 2021, published 2024):

Tests used:
h12/15-LOX = h12/15-LOX (Homo sapiens (Human), UniProt P16050); experiment: 12/15-LOX enzyme inhibition IC50 assay (Examples 1 and 2); format: biochemical; settings: for Emax / Max % inhibition: h12/15-LOX; for Emax: read-out: Max % inhibition
Method: Enzyme was then added to the cuvettes. […] The % inhibition for each test compound concentration were calculated as follows: […]

[1] = Metabolic stability of exemplified compounds (Example 4); format: in vitro ADME
[2] = Aqueous solubility of exemplified compounds (Example 3); format: physicochemical; settings: aqueous solubility
[3] = test system: experimental stroke model in mice (MCAO); experiment: Mouse stroke model, filament middle cerebral artery occlusion (MCAO), infarct size; format: in vivo; settings: 40 mg/kg intraperitoneally 2 h post reperfusion, 60 minutes MCAO, sacrifice at 24 h, TTC staining
Method: Studies were carried out in experimental stroke model in mice, using the filament model of middle cerebral artery occlusion (MCAO). For intraperitoneal delivery, compounds were dissolved in DMSO. A number of exemplified compounds were able to reduce infarct size when given at a dosage of 40 mg/kg.
40 mg/kg cmpd. 1 were given i.p. at time of reperfusion. Infarct size was measured at 24 hours after 60 minutes MCAO.
MCAO (Experimental Middle Cerebral Artery Ischemia and Functional Recovery) experiment: 40 mg/kg of compound delivered intraperitoneally 2 h post reperfusion, 60 minutes MCAO, sacrifice at 24 h, infarct size determined by TTC staining.

[4] = Solubility in formulation vehicles (Solutol HS-15/PEG400, Captisol); format: physicochemical; settings: 10% Solutol/90% PEG400
Method: Combinations of Solutol HS-15 (also known as Kolliphor HS-15) with PEG400 provided a good vehicle to solubilize the tested compounds. Specifically, 10% Solutol/90% PEG400 was used to prepare 20 mg/ml solutions of compound 1, compound 44, and compound 32. 10% Solutol/15% H2O/[…] led to 10 mg/ml solutions of the tested compounds.
20 mg/ml were obtained in 20% Captisol, allowing for intravenous delivery in the mouse stroke model.

h12/15-LOX, sequence (P16050 whole entry): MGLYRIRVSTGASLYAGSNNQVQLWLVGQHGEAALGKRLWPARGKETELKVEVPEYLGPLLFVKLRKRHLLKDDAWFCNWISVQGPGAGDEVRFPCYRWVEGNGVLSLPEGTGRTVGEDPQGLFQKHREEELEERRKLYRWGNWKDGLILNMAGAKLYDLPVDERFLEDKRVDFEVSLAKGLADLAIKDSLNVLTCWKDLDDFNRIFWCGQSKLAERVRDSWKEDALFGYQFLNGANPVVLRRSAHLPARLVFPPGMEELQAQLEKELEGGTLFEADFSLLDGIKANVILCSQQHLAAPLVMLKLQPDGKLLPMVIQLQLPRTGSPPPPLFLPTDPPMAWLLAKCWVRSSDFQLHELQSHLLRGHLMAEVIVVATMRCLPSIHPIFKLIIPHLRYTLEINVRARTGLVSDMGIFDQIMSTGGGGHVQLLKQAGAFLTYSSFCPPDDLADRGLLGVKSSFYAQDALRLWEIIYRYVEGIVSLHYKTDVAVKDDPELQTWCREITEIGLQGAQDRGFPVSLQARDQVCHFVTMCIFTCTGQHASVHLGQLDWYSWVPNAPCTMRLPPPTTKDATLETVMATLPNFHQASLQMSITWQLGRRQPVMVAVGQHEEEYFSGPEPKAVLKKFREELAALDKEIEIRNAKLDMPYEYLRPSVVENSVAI

Row | Compound | IC50 (h12/15-LOX) [µM] | Emax (h12/15-LOX) [%] | Extr (EH) ([1]; Human liver microsomes) | microsomal CLint ([1]; Human liver microsomes) [µL/min/mg] | Extr (EH) ([1]; Mouse liver microsomes) | microsomal CLint ([1]; Mouse liver microsomes) [µL/min/mg] | Extr (EH) ([1]; Rat liver microsomes) | microsomal CLint ([1]; Rat liver microsomes) [µL/min/mg] | Sol [2] | Max % inhibition (h12/15-LOX) [%] | CLint ([1]; Human liver microsomes) | CLint ([1]; Mouse liver microsomes) | CLint ([1]; Rat liver microsomes) | infarct size reduction [3] [%] | solution concentration achieved [4] [mg/mL]
1 | N#Cc1nc(-c2cc(Cl)cc(Cl)c2Cl)oc1NCC#CCOCc1ccccc1 [Compound 43, 5-((4-(Benzyloxy)but-2-yn-1-yl)amino)-2-(2,3,5-trichlorophenyl)oxazole-4-carbonitrile] | 0.23 | 93 | ** (“**” 50-100%) | 100 to 200 | ** (“**” 50-100%) | 20 to 100 | ** (“**” 50-100%) | 20 to 100 | + (“+” < 10 μM) | – | – | – | – | – | –
2 | N#Cc1nc(-c2cc(Cl)cc(Cl)c2Cl)oc1NCCOCCO [Compound 28, 5-((2-(2-Hydroxyethoxy)ethyl)amino)-2-(2,3,5-trichlorophenyl)oxazole-4-carbonitrile] | 1.5 | 87 | ** (“**” 50-100%) | 20 to 100 | * (“*” <50%) | 20 to 100 | * (“*” <50%) | < 20 | +++ (“+++” 20-50 μM) | – | – | – | – | – | –
3 | COCC/C=C/CNc1oc(-c2cc(Cl)cc(Cl)c2Cl)nc1C#N [Compound 46, (E)-5-((5-Methoxypent-2-en-1-yl)amino)-2-(2,3,5-trichlorophenyl)oxazole-4-carbonitrile] | 0.21 | 95 | ** (“**” 50-100%) | 20 to 100 | ** (“**” 50-100%) | 100 to 200 | ** (“**” 50-100%) | 20 to 100 | + (“+” < 10 μM) | – | – | – | – | – | –
4 | N#Cc1nc(-c2cc(Cl)cc(Cl)c2Cl)oc1NCCCCO [Compound 17, 5-((4-Hydroxybutyl)amino)-2-(2,3,5-trichlorophenyl)oxazole-4-carbonitrile] | 1.9 | 100 | * (“*” <50%) | < 20 | * (“*” <50%) | < 20 | * (“*” <50%) | < 20 | ++ (“++” 10-20 μM) | – | – | – | – | – | –
5 | COC/C=C/CNc1oc(-c2cc(Cl)cc(Cl)c2Cl)nc1C#N [Compound 45, (E)-5-((4-Methoxybut-2-en-1-yl)amino)-2-(2,3,5-trichlorophenyl)oxazole-4-carbonitrile] | 0.19 | 98 | ** (“**” 50-100%) | 20 to 100 | ** (“**” 50-100%) | 100 to 200 | ** (“**” 50-100%) | 20 to 100 | + (“+” < 10 μM) | – | – | – | – | – | –
6 | N#Cc1nc(-c2cc(Cl)cc(Cl)c2Cl)oc1NC/C=C/COCc1ccccc1 [Compound 47, (E)-5-((4-(Benzyloxy)but-2-en-1-yl)amino)-2-(2,3,5-trichlorophenyl)oxazole-4-carbonitrile] | 0.23 | 98 | ** (“**” 50-100%) | 100 to 200 | ** (“**” 50-100%) | 100 to 200 | ** (“**” 50-100%) | 100 to 200 | + (“+” < 10 μM) | – | – | – | – | – | –
7 | COCCOCCOCCNc1oc(-c2cc(Cl)cc(Cl)c2Cl)nc1C#N [Compound 50, 5-((2-(2-(2-Methoxyethoxy)ethoxy)ethyl)amino)-2-(2,3,5-trichlorophenyl)oxazole-4-carbonitrile] | 0.89 | – | ** (“**” 50-100%) | – | ** (“**” 50-100%) | – | ** (“**” 50-100%) | – | +++ (“+++” 20-50 μM) | 99 | ++ (“++” 20-100 μL/min/mg) | ++ (“++” 20-100 μL/min/mg) | ++ (“++” 20-100 μL/min/mg) | – | –
8 | COCCOCCCCNc1oc(-c2cc(Cl)cc(Cl)c2Cl)nc1C#N [Compound 48, 5-((4-(2-Methoxyethoxy)butyl)amino)-2-(2,3,5-trichlorophenyl)oxazole-4-carbonitrile] | 0.62 | – | ** (“**” 50-100%) | – | ** (“**” 50-100%) | – | ** (“**” 50-100%) | – | + (“+” < 10 μM) | 100 | ++ (“++” 20-100 μL/min/mg) | +++ (“+++” 100-200 μL/min/mg) | ++ (“++” 20-100 μL/min/mg) | – | –
9 | [2H]C([2H])([2H])Nc1oc(-c2cc(Cl)cc(Cl)c2Cl)nc1C#N [Compound 44, 5-((methyl-d3)amino)-2-(2,3,5-trichlorophenyl) oxazole-4-carbonitrile] | 0.09 | 91 | – | – | – | – | – | – | – | – | – | – | – | 29.6 | 20
